Laboratory results published in patent publication US20230365571A1, “COMPOUNDS AND COMPOSITIONS AS Sppl2a INHIBITORS” (Novartis AG, priority 2020, published 2023).

Columns and labels:
Format in all cases: cell-based
human SPPL2a [1] = target: T1, human SPPL2a (Homo sapiens, UniProt Q8TCT8); assay: Sppl2a RGA (reporter gene assay) in HEK293 cells; design: expressed in transfected cells; host or cells: HEK293 (transient); conditions: NT-TNF-VP16-Gal4 substrate, Gal4-luciferase reporter, 24 h
T1 sequence (Q8TCT8 26-520): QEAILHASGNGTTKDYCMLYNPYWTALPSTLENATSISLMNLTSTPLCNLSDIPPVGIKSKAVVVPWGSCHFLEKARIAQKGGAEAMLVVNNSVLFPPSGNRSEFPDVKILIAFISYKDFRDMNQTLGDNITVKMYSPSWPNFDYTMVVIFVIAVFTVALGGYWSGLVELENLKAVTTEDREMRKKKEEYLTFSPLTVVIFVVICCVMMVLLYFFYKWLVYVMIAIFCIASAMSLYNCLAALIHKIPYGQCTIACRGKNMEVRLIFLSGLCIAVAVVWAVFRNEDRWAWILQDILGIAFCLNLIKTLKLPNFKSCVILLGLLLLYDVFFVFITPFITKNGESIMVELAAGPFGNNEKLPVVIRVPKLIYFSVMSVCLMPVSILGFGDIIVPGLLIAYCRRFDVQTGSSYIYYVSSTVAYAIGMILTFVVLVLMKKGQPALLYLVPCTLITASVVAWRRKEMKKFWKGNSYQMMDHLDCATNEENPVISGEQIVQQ
Outline: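 Cleavage of a membrane-bound TNF N-terminal–VP16-Gal4 substrate drives Gal4-luciferase expression in transiently transfected HEK293 cells also expressing human SPPL2a. Compounds incubated 24 h, 37 °C, 5% CO2; luminescence read, normalized and plotted against concentration for IC50.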

human SPPL2a [2] = target: T1, human SPPL2a; assay: Sppl2a TL (translocation) imaging assay in U-2 OS cells; design: expressed in transfected cells; conditions: U-2 OS cells expressing human SPPL2a and EGFP-TNFα(aa1-76) NTF substrate; 24 h
Outline: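 U-2 OS cells stably expressing human SPPL2a plus doxycycline-induced EGFP-TNFα(aa1-76) NTF, treated 24 h at 37 °C with inhibitor (100 μM–1 nM, 11 points, 0.9% DMSO, 5 μg/mL doxycycline). Imaging of nuclear-minus-cytoplasmic EGFP intensity; % inhibition versus 0.5 μM LY-411,575 and DMSO, IC50 by nonlinear regression; CC50 from cell count.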

Sppl2a CD74 = target: T2, Sppl2a CD74 (Mus musculus, UniProt Q9JJF9); assay: CD74/p8 mouse whole blood assay, flow cytometry format; conditions: Balb/c mouse whole blood, 5 h, CD74 signal on gated live B cells
T2 construct: Mouse whole blood Balb/c mice (sodium citrate) was ordered by Bioreclamation LLC; tissue Bioreclamation LLC
T2 sequence (Q9JJF9 26-523): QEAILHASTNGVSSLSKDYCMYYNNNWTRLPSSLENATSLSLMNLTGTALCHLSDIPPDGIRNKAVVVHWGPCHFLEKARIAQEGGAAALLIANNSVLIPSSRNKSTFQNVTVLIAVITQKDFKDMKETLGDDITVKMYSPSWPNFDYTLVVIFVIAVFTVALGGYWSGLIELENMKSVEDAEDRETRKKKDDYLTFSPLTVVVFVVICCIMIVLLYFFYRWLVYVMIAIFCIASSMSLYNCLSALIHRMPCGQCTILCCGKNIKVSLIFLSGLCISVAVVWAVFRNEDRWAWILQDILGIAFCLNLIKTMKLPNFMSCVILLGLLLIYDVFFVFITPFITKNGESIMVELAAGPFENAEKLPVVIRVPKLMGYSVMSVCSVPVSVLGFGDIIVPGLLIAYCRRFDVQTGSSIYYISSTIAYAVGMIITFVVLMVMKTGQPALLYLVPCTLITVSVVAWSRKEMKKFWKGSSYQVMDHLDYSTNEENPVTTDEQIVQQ
Experimental: CD74/p8 Mouse Whole Blood Assay: Flow Cytometry Format
Mouse whole blood Balb/c mice (sodium citrate) was ordered by Bioreclamation LLC; USA. The blood was used the next day upon receipt (stored at 4° C.). 100 μL blood were transferred in 96 well format plate, where compounds, an 11 point dilutions down from 30 μM, to be tested were previously deposited. The plate was incubated for 5 h in the incubator at 37° C., 5% CO2 under continuous motion. After the incubation the blood was diluted with RBC Lysis Buffer (Amined; Cat. Nr 3-13F00-H or BD; Cat. Nr 555899). The solution was mixed by pipetting and incubated 10 min in the 37° C. incubator. The white blood cells were sedimented for 3 min at 2000 rpm. After removing the supernatant the cell pellet was resuspended and washed twice in RCB Buffer and kept≈ 5 min at room temperature, followed by a centrifugation for 2 min at 2000 rpm. The cell pellet was then resuspend in D-PBS and centrifuged twice. Finally, the cells were taken up in of D-PBS/0.5% inactivated fetal bovine serum/2 mM EDTA. The cell suspension was treated with Live/Dead fixable stain (Life Technologies, >470 nm version), B cells were identified by surface staining with an anti-B220 antibody coupled to APC fluorofor. After staining, the cells were extensively washed with PBS. The cells were permeabilized and fixed in FACS lysing buffer; (BD; #349202, dil 1:10 in water) and labelled with an anti CD74, FITC labelled antibody, washed once more with diluted FACS lysing buffer and spin down. The cell pellet was washed with D-PBS/0.5% inactivated fetal bovine serum/2 mM EDTA and PBS prior to the analysis in a flow cytometer. The compound concentrations were plotted against the intensity (medium fluorescence intensity) of the CD74 signal on the gated life B cell and IC50 were determined by fitting data for a 11 concentrations dose response.

CC(C)NC(=O)c1nc(Cl)c(NC(=O)C[C@@H](C)C(=O)N[C@@H]2C(=O)N3CCCN3Cc3ccccc32)s1 [Example 64, (R)-N^4-(4-Chloro-2-(isopropylcarba-moyl)thiazol-5-yl)-2-methyl-N^1-((S)-11-oxo-2,3,10,11-tetrahydro-1H,5H-benzo[d]pyrazolo [1,2-a][1,2]diazepin-10-yl)succinamide]
IC50 (human SPPL2a [1]): 3 nM
IC50 (human SPPL2a [2]): 1 nM
IC50 (Sppl2a CD74): 230 nM

Cc1nc(NC(=O)C(C)C)sc1C(=O)NC[C@H](C(=O)N[C@@H]1C(=O)N2CCCN2Cc2ccccc21)C(F)(F)F [Example 3, 2-Isobutyramido-4-methyl-N-((R)-3,3,3-trifluoro-2-(((S)-11-oxo-2,3,10,11-tetrahydro-1H,5H-benzo[d]pyrazolo [1,2-a][1,2]diazepin-10-yl)carbamoyl)pro-pyl)thiazole-5-carboxamide]
IC50 (human SPPL2a [1]): 3 nM
IC50 (human SPPL2a [2]): 0.5 nM
IC50 (Sppl2a CD74): 100 nM

CC(C)C(=O)Nc1cc(NC(=O)C[C@H](C(=O)N[C@@H]2C(=O)N3CC4(CC4)CN3C(=O)c3ccccc32)C2CC2)n(C)n1 [Example 93, (S)-2-Cyclopropyl-N^1-((S)-5,11-dioxo-10,11-dihydro-1H,3H,5H-spiro[benzo[d]pyrazolo[1,2-a][1,2]diazepine-2,1′-cyclopropan]-10-yl)-N^4-(3-isobutyramido-1-methyl-1H-pyrazol-5-yl)succinamide]
IC50 (human SPPL2a [1]): 168 nM
IC50 (human SPPL2a [2]): 12 nM
IC50 (Sppl2a CD74): 1130 nM

CC[C@H](CNC(=O)c1c(C)noc1C(F)(F)F)C(=O)N[C@@H]1C(=O)N2CCCN2Cc2ccccc21 [Example 17, 3-Methyl-N-((R)-2-(((5)-11-oxo-2,3,10,11-tetrahydro-1H,5H-benzo[d]pyrazolo [1,2-a][1,2]diazepin-10-yl)carbamoyl)butyl)-5-(trifluoromethyl) isoxazole-4-carboxamide]
IC50 (human SPPL2a [1]): 5 nM
IC50 (human SPPL2a [2]): 11 nM
IC50 (Sppl2a CD74): 2350 nM

CCNC(=O)c1nc(C)c(C(=O)NC[C@H](C(=O)N[C@@H]2C(=O)N3CCCN3Cc3ccccc32)C(F)(F)F)s1 [Example 7, N^2-Ethyl-4-methyl-N^5-((R)-3,3,3-trifluoro-2-(((S)-11-oxo-2,3,10,11-tetrahydro-1H,5H-benzo[d]pyrazolo [1,2-a][1,2]diazepin-10-yl)carbamoyl)pro-pyl)thiazole-2,5-dicarboxamide]
IC50 (human SPPL2a [1]): 2 nM
IC50 (human SPPL2a [2]): 3 nM
IC50 (Sppl2a CD74): 120 nM

CC[C@H](CNC(=O)c1sc(C(=O)NC(C)C)nc1C)C(=O)N[C@@H]1C(=O)N2CCCN2Cc2ccccc21 [Example 19, N^2-Isopropyl-4-methyl-N^5-((R)-2-(((S)-11-oxo-2,3,10,11-tetrahydro-1H,5H-benzo[d]pyrazolo [1,2-a][1,2]diazepin-10-yl)carbamoyl)butyl) thiazole-2,5-dicarboxamide]
IC50 (human SPPL2a [1]): 6 nM
IC50 (human SPPL2a [2]): 12 nM
IC50 (Sppl2a CD74): 819 nM

CC[C@H](CNC(=O)c1sc(-c2ccno2)nc1C)C(=O)N[C@@H]1C(=O)N2CCCN2Cc2ccccc21 [Example 32, 2-(Isoxazol-5-yl)-4-methyl-N-((R)-2-(((S)-11-oxo-2,3,10,11-tetrahydro-1H,5H-benzo[d]pyrazolo [1,2-a][1,2]diazepin-10-yl)carbamoyl)butyl) thiazole-5-carboxamide]
IC50 (human SPPL2a [1]): 10 nM
IC50 (human SPPL2a [2]): 37 nM
IC50 (Sppl2a CD74): 174 nM

Cc1cc(-c2nc(C)c(C(=O)NC[C@@H](C)C(=O)N[C@@H]3C(=O)N4CCCN4Cc4ccccc43)s2)on1 [Example 23, 4-Methyl-N-((R)-2-methyl-3-oxo-3-(((S)-11-oxo-2,3,10,11-tetrahydro-1H,5H-benzo[d]pyrazolo [1,2-a][1,2]diazepin-10-yl)amino)propyl)-2-(3-methylisoxazol-5-yl)thiazole-5-carboxamide]
IC50 (human SPPL2a [1]): 21 nM
IC50 (human SPPL2a [2]): 16 nM
IC50 (Sppl2a CD74): 992 nM

CCOc1nc(C)c(C(=O)NC[C@@H](CC)C(=O)N[C@@H]2C(=O)N3CCCN3Cc3ccccc32)s1 [Example 53, 2-Ethoxy-4-methyl-N-((R)-2-(((S)-11-oxo-2,3,10,11-tetrahydro-1H,5H-benzo[d]pyrazolo [1,2-a][1,2]diazepin-10-yl)carbamoyl)butyl) thiazole-5-carboxamide]
IC50 (human SPPL2a [1]): 22 nM
IC50 (human SPPL2a [2]): 125 nM
IC50 (Sppl2a CD74): 279 nM

Cc1nc(C2CCOCC2)sc1C(=O)NC[C@H](C(=O)N[C@@H]1C(=O)N2CCCN2Cc2ccccc21)C(F)(F)F [Example 50, 4-Methyl-2-(tetrahydro-2H-pyran-4-yl)-N-((R)-3,3,3-trifluoro-2-(((S)-11-oxo-2,3,10,11-tetrahydro-1H,5H-benzo[d]pyrazolo [1,2-a][1,2]diazepin-10-yl)carbamoyl)pro-pyl)thiazole-5-carboxamide]
IC50 (human SPPL2a [1]): 90 nM
IC50 (human SPPL2a [2]): 97 nM
IC50 (Sppl2a CD74): 1390 nM

CCNC(=O)c1nc(C)c(C(=O)NC[C@H](C(=O)N[C@@H]2C(=O)N3CCCN3Cc3ccccc32)C2CC2)s1 [Example 12, N^5-((R)-2-Cyclopropyl-3-oxo-3-(((S)-11-oxo-2,3,10,11-tetrahydro-1H,5H-benzo[d]pyrazolo [1,2-a][1,2]diazepin-10-yl)amino)propyl)-N^2-ethyl-4-methylthiazole-2,5-dicarboxamide]
IC50 (human SPPL2a [1]): 4 nM
IC50 (human SPPL2a [2]): 5 nM
IC50 (Sppl2a CD74): 280 nM

C[C@H](CNC(=O)c1sc(C2CC2)nc1Cl)C(=O)N[C@@H]1C(=O)N2CCCN2Cc2ccccc21 [Example 43, 4-Chloro-2-cyclopropyl-N-((R)-2-methyl-3-oxo-3-(((S)-11-oxo-2,3,10,11-tetrahydro-1H,5H-benzo[d]pyrazolo [1,2-a][1,2]diazepin-10-yl)amino)propyl) thiazole-5-carboxamide]
IC50 (human SPPL2a [1]): 104 nM
IC50 (human SPPL2a [2]): 63 nM
IC50 (Sppl2a CD74): 1740 nM

Cc1cc(-c2cc(NC(=O)C[C@@H](C)C(=O)N[C@@H]3C(=O)N4CCCN4Cc4ccccc43)n(C)n2)on1 [Example 90, (R)-2-Methyl-N^4. (1-methyl-3-(3-methylisoxazol-5-yl)-1H-pyrazol-5-yl)-N^1-((S)-11-oxo-2,3,10,11-tetrahydro-1H,5H-benzo[d]pyrazolo [1,2-a][1,2]diazepin-10-yl)succinamide]
IC50 (human SPPL2a [1]): 11 nM
IC50 (human SPPL2a [2]): 11 nM
IC50 (Sppl2a CD74): 635 nM

CC(C)NC(=O)c1ncc(NC(=O)C[C@@H](C)C(=O)N[C@@H]2C(=O)N3CCCN3Cc3ccccc32)s1 [Example 91, (R)-N^4-(2-(Isopropylcarba-moyl)thiazol-5-yl)-2-methyl-N^1-((S)-11-oxo-2,3,10,11-tetrahydro-1H,5H-benzo[d]pyrazolo [1,2-a][1,2]diazepin-10-yl)succinamide]
IC50 (human SPPL2a [1]): 24 nM
IC50 (human SPPL2a [2]): 11 nM
IC50 (Sppl2a CD74): 500 nM
